Experimental findings from the NIST ThermoML archive (doi:10.1016/j.jct.2014.03.006) are described below.

The series in a line: Boiling temperature at pressure P. Particulars: Liquid, Ebulliometric method (Recirculating still).

The structures appear in SMILES notation. Numbers after ± are expanded uncertainties.

As to `CCC/C=C/C=O` [(E)-2-hexenal], the “Boiling temperature at pressure P” value reads like this: (24.5 kPa) 100.4 ± 0.3 °C; (34 kPa) 110 ± 0.3 °C; (43.5 kPa) 117.2 ± 0.3 °C; (53 kPa) 123.8 ± 0.3 °C; (62.5 kPa) 129.5 ± 0.3 °C; (72 kPa) 134.6 ± 0.3 °C. For the same molecule, the “Boiling temperature at pressure P” value reads like this: (81.5 kPa) 139 ± 0.3 °C; (91 kPa) 143.0 ± 0.4 °C; (101.3 kPa) 147.6 ± 0.4 °C; (110 kPa) 150.7 ± 0.4 °C; (119.5 kPa) 154.0 ± 0.4 °C; (129 kPa) 157.2 ± 0.4 °C. Also, the “Boiling temperature at pressure P” value runs as follows: (138.5 kPa) 160.0 ± 0.4 °C; (148 kPa) 162.8 ± 0.4 °C; (157.5 kPa) 165.2 ± 0.4 °C; (167 kPa) 168 ± 0.4 °C; (176.5 kPa) 170.2 ± 0.4 °C; (186 kPa) 172.2 ± 0.4 °C. In addition, the “Boiling temperature at pressure P” value (190 kPa) was 173.1 ± 0.4 °C.

Consider `CCOC(=O)C(C)CC` (configuration not stated) [ethyl 2-methylbutanoate], for which the “Boiling temperature at pressure P” value (24.5 kPa) was determined as 89.0 ± 0.2 °C; the “Boiling temperature at pressure P” value (34 kPa) is 98.1 ± 0.3 °C; the “Boiling temperature at pressure P” value (43.5 kPa) was 105.2 ± 0.3 °C; the “Boiling temperature at pressure P” value (53 kPa) was determined as 111.1 ± 0.3 °C; the “Boiling temperature at pressure P” value (62.5 kPa) is 116.4 ± 0.3 °C; the “Boiling temperature at pressure P” value (72 kPa) worked out at 121 ± 0.3 °C. Further, the “Boiling temperature at pressure P” value runs as follows: (81.5 kPa) 124.8 ± 0.3 °C; (91 kPa) 128.7 ± 0.3 °C; (101.3 kPa) 132.5 ± 0.3 °C; (110 kPa) 135.6 ± 0.3 °C; (119.5 kPa) 138.6 ± 0.3 °C; (129 kPa) 141.4 ± 0.3 °C. Also, the “Boiling temperature at pressure P” value came out at 144.2 ± 0.3 °C (138.5 kPa); 147.0 ± 0.3 °C (148 kPa); 149.4 ± 0.3 °C (157.5 kPa); 151.7 ± 0.3 °C (167 kPa); 154 ± 0.3 °C (176.5 kPa); 156.0 ± 0.3 °C (186 kPa). Besides, the “Boiling temperature at pressure P” value (190 kPa) was 156.8 ± 0.3 °C.

Regarding `CCCCCC=O` [hexanal], the “Boiling temperature at pressure P” value stood at 85.0 ± 0.3 °C (24.5 kPa); 94.2 ± 0.3 °C (34 kPa); 101.1 ± 0.3 °C (43.5 kPa); 107 ± 0.3 °C (53 kPa); 112.2 ± 0.3 °C (62.5 kPa); 116.8 ± 0.3 °C (72 kPa). The “Boiling temperature at pressure P” value (81.5 kPa) was 121 ± 0.3 °C; the “Boiling temperature at pressure P” value (91 kPa) was 124.7 ± 0.3 °C; the “Boiling temperature at pressure P” value (101.3 kPa) worked out at 128.8 ± 0.3 °C; the “Boiling temperature at pressure P” value (110 kPa) is 131.8 ± 0.3 °C; the “Boiling temperature at pressure P” value (119.5 kPa) was found to be 134.8 ± 0.3 °C; the “Boiling temperature at pressure P” value (129 kPa) was determined as 137.5 ± 0.3 °C. Further, the “Boiling temperature at pressure P” value reads like this: (138.5 kPa) 140.2 ± 0.3 °C; (148 kPa) 143 ± 0.3 °C; (157.5 kPa) 145.5 ± 0.3 °C; (167 kPa) 147.7 ± 0.3 °C; (176.5 kPa) 149.7 ± 0.3 °C; (186 kPa) 151.8 ± 0.3 °C. Further, the “Boiling temperature at pressure P” value (190 kPa) was 152.7 ± 0.3 °C.
